What was measured:
[1] = tested on: Src; test: VEGF-induced membrane Src activation in live endothelial cells (FRET); type: cell-based; conditions: YPet-based membrane-targeted Src biosensor
Description: Both VEGF and Src are critical for angiogenesis. […] However, VEGF-induced Src activation was difficult to detect using an ECFP/Citrine-based biosensor. […] Thus, the YPet-based Src biosensor was targeted to the plasma membrane by fusing a prenylation substrate sequence (Lys-Lys-Lys-Lys-Lys-Lys-Ser-Lys-Thr-Lys-Cys-Val-Ile-Met; SEQ ID NO:9) from KRas to visualize the VEGF-induced membrane Src activation in live endothelial cells.

[2] = tested on: Src; test: PDGF-induced Src activation in MEFs (Src FRET biosensor); type: cell-based, mouse
Description: Unexpectedly, PDGF-induced Src activation was global without a clear spatial pattern at subcellular levels, even when MEFs were constrained on fibronectin stripes to have directional migration.

[3] = tested on: Rac; test: PDGF-induced Rac activity in MEFs (Rac FRET biosensor); type: cell-based, mouse
Description: The improved ECFP/YPet biosensor was further used in the analysis of molecular hierarchy in cell migration. […] However, the spatiotemporal interrelationship between Src and Rac activation has not been shown. Thus, the improved Rac biosensor was employed to visualize the spatiotemporal Rac activity during cell migration in response to platelet-derived growth factor (PDGF). The role of Src in regulating this Rac activation was also investigated. […] PDGF induced a strong Rac activation at membrane ruffles and a moderate overall activation of Rac in the whole cell. […] To further characterize the spatiotemporal Rac activity, MEF cells transfected with the Rac biosensor were seeded atop fibronectin-coated stripes (10 μm width) to constrain the cell adhesion and control the direction of cell migration. […] Again, the inhibition of Src by PP1 or Src/Yes/Fyn triple-knockout blocked the polarized Rac activity before and after PDGF stimulation.

Row | Compound | Effect of inhibitor on VEGF-induced FRET response [1] | PDGF-induced Src activation ([2]; MEF cells transfected with RacV12) | PDGF-induced Src activation ([2]; MEFs, disruption of actin filaments) | Polarized Rac activity before and after PDGF stimulation ([3]; MEFs on fibronectin-coated stripes (10 μm width)) | Basal and PDGF-induced Rac activity ([3]; MEFs pretreated with inhibitor, cultured on fibronectin)
1 | CC(C)c1cc(/C=C(\C#N)C(=O)NCCCc2ccccc2)cc(C(C)C)c1O [SU1498] | abolished |  |  |  | 
2 | C=C1[C@@H](C)[C@H]2[C@H](Cc3ccccc3)NC(=O)[C@]23[C@H](OC(C)=O)/C=C/[C@@](C)(O)C(=O)[C@@H](C)C/C=C/[C@H]3[C@@H]1O [CytoD] |  | inhibited | blocked |  | 
3 | Cc1ccc(-c2nn(C(C)(C)C)c3ncnc(N)c23)cc1 [PP1] | abolished |  |  | blocked | significantly inhibited
